From PubChem BioAssay (NCI)
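Dose response: 5 concentrations. Exposure: 48 h. Format: 96-well plates. Endpoint: linear interpolation; highest concentration if not reached. TGI marks complete inhibition of growth.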

Tests used:
Experiment in all cases: growth of human tumour cells (NCI), 48 h
BT-549 breast = test system: BT-549 breast
HCT-116 colon = test system: HCT-116 colon
DU-145 prostate = test system: DU-145 prostate
SN12C renal = test system: SN12C renal
EKVX NSCLC = test system: EKVX NSCLC
SK-MEL-5 melanoma = test system: SK-MEL-5 melanoma
786-0 renal = test system: 786-0 renal
SR leukemia = test system: SR leukemia
MDA-N = test system: MDA-N
HOP-62 NSCLC = test system: HOP-62 NSCLC
HCT-15 colon = test system: HCT-15 colon
SK-MEL-28 melanoma = test system: SK-MEL-28 melanoma
SK-OV-3 ovarian = test system: SK-OV-3 ovarian
HL-60(TB) leukemia = test system: HL-60(TB) leukemia
PC-3 prostate = test system: PC-3 prostate
RPMI-8226 leukemia = test system: RPMI-8226 leukemia
RXF 393 renal = test system: RXF 393 renal
A498 renal = test system: A498 renal
COLO 205 colon = test system: COLO 205 colon
T-47D breast = test system: T-47D breast
SNB-75 CNS = test system: SNB-75 CNS
KM12 colon = test system: KM12 colon
OVCAR-5 ovarian = test system: OVCAR-5 ovarian
UO-31 renal = test system: UO-31 renal
A549 NSCLC = test system: A549 NSCLC
MALME-3M melanoma = test system: MALME-3M melanoma
MDA-MB-435 = test system: MDA-MB-435
CCRF-CEM leukemia = test system: CCRF-CEM leukemia
OVCAR-8 ovarian = test system: OVCAR-8 ovarian
HT29 colon = test system: HT29 colon
MCF7 breast = test system: MCF7 breast
MDA-MB-231 breast = test system: MDA-MB-231 breast
IGROV1 ovarian = test system: IGROV1 ovarian
SK-MEL-2 melanoma = test system: SK-MEL-2 melanoma
SW-620 colon = test system: SW-620 colon
HCC-2998 colon = test system: HCC-2998 colon
ACHN renal = test system: ACHN renal
UACC-257 melanoma = test system: UACC-257 melanoma
U251 CNS = test system: U251 CNS
SNB-19 CNS = test system: SNB-19 CNS
NCI-H460 lung = test system: NCI-H460 lung
OVCAR-3 ovarian = test system: OVCAR-3 ovarian
SF-268 CNS = test system: SF-268 CNS
UACC-62 melanoma = test system: UACC-62 melanoma
SF-539 CNS = test system: SF-539 CNS
K-562 leukemia = test system: K-562 leukemia
MOLT-4 leukemia = test system: MOLT-4 leukemia
M14 melanoma = test system: M14 melanoma
TK-10 renal = test system: TK-10 renal
NCI/ADR-RES ovarian = test system: NCI/ADR-RES ovarian
CAKI-1 renal = test system: CAKI-1 renal
NCI-H522 lung = test system: NCI-H522 lung
NCI-H226 lung = test system: NCI-H226 lung
NCI-H23 lung = test system: NCI-H23 lung
LOX IMVI melanoma = test system: LOX IMVI melanoma
HOP-92 NSCLC = test system: HOP-92 NSCLC
SF-295 CNS = test system: SF-295 CNS
HS 578T breast = test system: HS 578T breast
OVCAR-4 ovarian = test system: OVCAR-4 ovarian

Measured: TGI

CNC(=S)N/N=C(\C)c1cc(OC)c(OC)cc1O
not listed: NCI-H522 lung | NCI-H226 lung | NCI-H23 lung | LOX IMVI melanoma | HOP-92 NSCLC | SF-295 CNS | HS 578T breast | OVCAR-4 ovarian
> 100 µM: all other assays above

COc1ccc(NS(=O)(=O)c2ccc3ncn(NS(=O)(=O)c4ccc(I)cc4)c(=O)c3c2)cc1
not listed: BT-549 breast
> 100 µM: all other assays above

O=C(OC1C#CCSCC#C/C=C\1)c1cnc2ccccc2n1 (stereo unspecified)
26.3 µM: 786-0 renal
65.4 µM: K-562 leukemia
33.7 µM: NCI-H460 lung
30.8 µM: COLO 205 colon
53.1 µM: SR leukemia
not listed: SK-MEL-5 melanoma | RPMI-8226 leukemia | T-47D breast | KM12 colon | A549 NSCLC | MOLT-4 leukemia | CAKI-1 renal
> 100 µM: all other assays above

CC(=O)OCc1cc(OC(C)=O)c2cc3c(OC(C)=O)cccc3c(OC(C)=O)c2c1
51.3 µM: T-47D breast
34.2 µM: ACHN renal
56.8 µM: NCI-H23 lung
47.3 µM: NCI-H226 lung
59.3 µM: OVCAR-4 ovarian
44.6 µM: RPMI-8226 leukemia
55.7 µM: M14 melanoma
45.2 µM: SNB-75 CNS
33 µM: TK-10 renal
40.3 µM: IGROV1 ovarian
58.9 µM: MDA-MB-231 breast
41.2 µM: UO-31 renal
50.6 µM: SNB-19 CNS
49.6 µM: BT-549 breast
32 µM: U251 CNS
51.7 µM: SK-MEL-28 melanoma
47.5 µM: HL-60(TB) leukemia
38.6 µM: PC-3 prostate
43.4 µM: NCI/ADR-RES ovarian
38.9 µM: MCF7 breast
41.1 µM: SK-OV-3 ovarian
30.9 µM: A549 NSCLC
58.1 µM: SF-268 CNS
31.6 µM: HCC-2998 colon
44.2 µM: SW-620 colon
40.9 µM: MDA-N
32.2 µM: SN12C renal
4.08 µM: MALME-3M melanoma
23.8 µM: NCI-H460 lung
32.9 µM: SF-295 CNS
27.3 µM: A498 renal
46.4 µM: OVCAR-5 ovarian
23.7 µM: SK-MEL-5 melanoma
31.1 µM: HCT-15 colon
33.6 µM: OVCAR-3 ovarian
43.5 µM: DU-145 prostate
38.7 µM: UACC-62 melanoma
34.4 µM: 786-0 renal
43.9 µM: MDA-MB-435 | HT29 colon
34.1 µM: EKVX NSCLC
> 100 µM: HCT-116 colon | SR leukemia | COLO 205 colon | K-562 leukemia | MOLT-4 leukemia
39.6 µM: HOP-62 NSCLC
35.4 µM: OVCAR-8 ovarian
52.2 µM: HOP-92 NSCLC
49.1 µM: UACC-257 melanoma
